Assay: Volume-average particle diameter of benzbromarone nanoparticles (Nanotrac particle size distribution), Example 2-2
Assay type: physicochemical
Conditions: ethanol solution of 3% benzbromarone/0.1% Tween 80 into pure water
Description: Particle size distribution was measured by using a Nanotrac particle size distribution measurement instrument (UPA-EX150, manufactured by Nikkiso Co., Ltd.), and the volume-average particle diameter was taken. An ethanol solution in which benzbromarone and Tween 80 (dispersant) were dissolved with the concentrations thereof being 3% for benzbromarone and 0.1% for Tween 80 was introduced as a second fluid into between the processing surfaces 1 and 2 at a rate of 10 mL/minute, together with pure water as a first fluid from the center at supply pressure of 0.25 MPa, a rotation speed of 700 rpm, and a rate of 200 g/minute, whereby the two fluids were mixed. The dispersion solution of benzbromarone was discharged. Temperature conditions of the first fluid and the second fluid, and results of particle size distribution of the obtained dispersion solution are shown in Table 3. The particle diameters of nanoparticles obtained in respective conditions were confirmed by a transmission electron microscope (TEM); it was confirmed that the particle diameter confirmed by the TEM picture was identical to the measurement result of the particle size distribution. The SEM picture of the nanoparticles obtained under the temperature conditions of 25° C. for the first fluid and 25° C. for the second fluid (ΔT=0° C.) is shown in FIG. 17; and the TEM picture of the nanoparticles obtained under the temperature conditions of 5° C. for the first fluid and 35° C. for the second fluid (ΔT=30° C.) is shown in FIG. 18, respectively.

`CCc1oc2ccccc2c1C(=O)c1cc(Br)c(O)c(Br)c1` [benzbromarone] gave a Volume-average particle diameter (T1 5°C, T2 5°C, ΔT 0) of 229.3 nm, a Volume-average particle diameter (T1 5°C, T2 8°C, ΔT 3) of 204.6 nm and a Volume-average particle diameter (T1 5°C, T2 10°C, ΔT 5) of 51.3 nm. It also gave a Volume-average particle diameter (T1 5°C, T2 35°C, ΔT 30) of 58.6 nm and a Volume-average particle diameter (T1 25°C, T2 25°C, ΔT 0) of 208.4 nm.

Source: patent US9481796B2, “Method for producing nanoparticles” (M. Technique Co., Ltd., priority 2010, dated 2016)
